{"source": "patent US20140309295A1", "about": "“ANTIEPILEPTIC, HYPOCHOLESTEROLEMIC AND NEUROPROTECTIVE COMPOUND” (NEURON BIOPHARMA, S.A., priority 2009, published 2014)", "key": {"[1]": {"test_system": "human neuroblastoma SK-N-MC cells", "test": "Protection against neuronal death induced by endoplasmic reticulum stress (tunicamycin), WST-1", "format": "cell-based", "details": "40 μM NST0037; 24 μM tunicamycin", "experimental": "The assay was performed on human neuroblastoma SK-N-MC cells in culture from the American Type Culture Collection (ATCC), in all cases strict rules of sterility were followed and the manipulation was performed in class II biological safety cabinets following European standard EN 12469. The cells were maintained in the following culture medium: Minimum Essential Medium Eagle (MEM) supplemented with 1 mM sodium pyruvate, 2 mM L-glutamine, 0.1 mM non-essential amino acids, 0.05 mg/ml gentamicin and 10% fetal bovine serum.\nThe inhibition caused by compound NST0037 of cell death caused by treatment with tunicamycin generating reticular stress was analyzed. Tunicamycin is an inhibitor of protein N-glycosylation, causing abnormal protein folding in the endoplasmic reticulum, therefore said proteins are accumulated and cause stress, resulting in cell death. These cells, not exceeding 15 passages, were seeded on 96-well plates treated for adherent cells with a cell concentration of 5×10^4 cells/well; 3 wells of the plate were seeded for each condition of the assay. […]\nThe cells were incubated (at 37° C. and 5% CO2) with these treatments for 22 hours, after which time WST-1 reagent (Roche) was added. […] The formazan that is formed can be detected colorimetrically since it has an absorbance of 440 nm. The reading was taken in a plate reader at 440 nm 2 hours after adding the reagent."}, "[2]": {"test_system": "CD1 mice inoculated with MPTP (acute)", "test": "Acute MPTP model of Parkinson's disease in mice", "format": "in vivo", "experimental": "(§1) All the animals included for the experimental process were 12-week old males of the CD1 strain. The experiments were conducted strictly following the Guidance on the Operation of Animals (Scientific Procedures, Act. 1986). The animals had their respective quarantine period and were treated with maximum precaution to minimize possible contaminations during inoculations and handling.\nForty animals were used in this assay and the treatments were conducted with a volume of 100 μl, according to the following regimens: • i) PBS+PBS+PBS regimen: 10 animals were initially treated with PBS with a daily dose for 2 days by subcutaneous (s.c.) route, on the second day the animals were inoculated with 4 doses of PBS, at intervals of 2 hours by intraperitoneal (i.p.) route. For the next 7 days they were administered a daily dose of PBS by s.c. route. • ii) PBS+MPTP+PBS regimen: 10 animals were initially treated with a daily dose for 2 days of PBS by s.c. route, on the second day the animals were inoculated with 4 doses of MPTP at 20 mg/Kg, at intervals of 2 hours by i.p. route. For the next 7 days they were administered a daily dose of PBS by s.c. route. • iii) NST0037+MPTP+NST0037 regimen: 10 animals were initially treated with a daily dose for 2 days of NST0037 at 50 mg/kg by s.c. route, on the second day the animals were inoculated with 4 doses of MPTP at 20 mg/Kg, at intervals of 2 hours by i.p. route. For the next 7 days they were administered a daily dose of NST0037 at 50 mg/kg by s.c. route.\nBefore starting the treatments and once the treatment time of 7 days ended, the animals were subjected to a locomotor resistance test referred to as the Rotarod test for 2 minutes, recording the time the animals resisted walking over a cylinder which increased its speed from 4 to 40 r.p.m.\nBefore starting the treatments and once the treatment time of 7 days ended, the animals were subjected to a strength test in the so-called Grip-strength test, recording the strength of gripping a bar in grams exerted by the animals with the front paws in triplicate.\n(§2) Once the treatment time of 7 days ended, the animals were sacrificed and the brains were dissected. The brain samples were processed and included in paraffin. For the analysis of neurodegeneration in the substantia nigra and the striatum, fluorescent Fluoro Jade B (FJB) staining was performed in 5 μm thick sagittal sections.\nas §2, with “the presence of dopaminergic neurons” for “neurodegeneration”, “the immunohistochemistry against the tyrosine-hydroxylase (TH) protein” for “fluorescent Fluoro Jade B (FJB) staining”"}, "[3]": {"test_system": "FVB/NHan mice inoculated with kainate (KA)", "test": "Mortality caused by kainate in mice (Kaplan-Meier)", "format": "in vivo", "details": "50 mg/kg i.p.", "experimental": "as §1, with “FVB/NHan” for “CD1”, “for” for “during”, “handling. […]” for “handling.”\nThe deaths were recorded during the entire time the assay lasted, and the results are shown in FIG. 8 by means of Kaplan-Meier survival curves. […]"}, "[4]": {"details": "NST0037+MPTP+NST0037, 50 mg/kg s.c., 7 days"}, "[5]": {"details": "NST0037+MPTP+NST0037 vs PBS+MPTP+PBS, 7 days"}}, "data": [{"smiles": "CCC(CC)C(=O)O[C@H]1C[C@@H](C)C=C2C=C[C@H](C)[C@H](CC[C@@H]3C[C@@H](O)CC(=O)O3)[C@H]21", "note": "[NST0037, (1S,2S,6R,8S,8aR)-1,2,6,7,8,8a-hexahydro-3,7-dimethyl-8-[2-[(2R,4R)-tetrahydro-4-hydroxy-6-oxo-2H-pyran-2-yl]ethyl]-1-naphthalenyl-2-ethyl-butyrate]", "values": [{"measurement": "protection against death caused by Tm", "setting": "[1]", "result": 55, "unit": "%"}, {"measurement": "motor resistance (Rotarod test)", "setting": "[2]; [4]", "result": "prevents the motor deterioration of the animals"}, {"measurement": "strength (Grip-strength test)", "setting": "[2]; [4]", "result": "prevents the loss of strength induced by MPTP"}, {"measurement": "survival after acute administration of MPTP", "setting": "[2]; NST0037+MPTP+NST0037, 50 mg/kg s.c., MPTP 4 x 20 mg/Kg i.p.", "result": "promotes the survival of the animals"}, {"measurement": "dopaminergic neurons (tyrosine-hydroxylase) in substantia nigra and striatum", "setting": "[2]; [5]", "result": "larger number of TH-positive cells in the substantia nigra as well as a higher labeling intensity in the striatum"}, {"measurement": "neurodegeneration (Fluoro Jade B) in substantia nigra and striatum", "setting": "[2]; [5]", "result": "number of cells in degeneration and positive for FJB significantly lower"}, {"measurement": "mortality caused by KA (survival)", "setting": "[3]; NST0037+KA+NST0037 regimen", "result": "protected against death"}, {"measurement": "survival of the animals vs PBS+KA+PBS", "setting": "[3]; PBS+KA+NST0037 regimen", "result": "increases"}]}]}
